Experimental data reported in US20230271964A1, “5-AMINO-8-(4-PYRIDYL)-[1,2,4]TRIAZOLO[4,3-C]PYRIMIDIN-3-ONE COMPOUNDS FOR USE AGAINST CANCER” (ASTRAZENECA AB, priority 2020, published 2023).

Legend:
[1] = molecular target: human adenosine A1 receptor (Homo sapiens (Human), UniProt P30542); test: Adenosine receptor inhibition binding assay, [3H]DPCPX, A1 receptor membranes; settings: 1 nM [3H]DPCPX, 25° C., 1 h, Ki from IC50 by Cheng-Prusoff
In short: (§1)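 Membranes from BacMam-transduced HEK293 cells (0.2 µg A2A; 1.4 µg A1) incubated 1 h at 25 °C with 1 nM radioligand; A2A in 50 mM Tris-HCl pH 7.4, A1 buffer adds 100 mM NaCl, 10 mM MgCl2. Nonspecific binding: 1 µM CGS 15943 (A2A) or 1 µM DPCPX (A1). Filtration, scintillation counting; IC50 converted to Ki via Cheng-Prusoff.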

[2] = molecular target: human adenosine A2A receptor (Homo sapiens (Human), UniProt P29274); test: Adenosine receptor inhibition binding assay, [3H]ZM241385, HEK293 A2A receptor membranes; settings: 1 nM [3H]ZM241385, HEK293-hA2A membranes, 25° C., 1 h, Ki from IC50 by Cheng-Prusoff
Sequence of human adenosine A2A receptor (P29274 whole entry): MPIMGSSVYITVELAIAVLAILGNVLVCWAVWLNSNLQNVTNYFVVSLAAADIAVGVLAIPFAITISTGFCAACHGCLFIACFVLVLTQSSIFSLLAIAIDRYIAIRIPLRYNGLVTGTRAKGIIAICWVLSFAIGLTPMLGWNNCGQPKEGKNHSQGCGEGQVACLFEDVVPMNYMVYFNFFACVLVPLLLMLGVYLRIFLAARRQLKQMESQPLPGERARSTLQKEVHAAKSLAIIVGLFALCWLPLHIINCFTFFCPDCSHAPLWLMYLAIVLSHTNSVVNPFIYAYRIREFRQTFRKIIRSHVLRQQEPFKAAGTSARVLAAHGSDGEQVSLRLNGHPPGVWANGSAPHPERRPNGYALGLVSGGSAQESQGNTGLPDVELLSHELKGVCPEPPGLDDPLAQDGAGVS
In short: as §1

[3] = molecular target: human CB-1 cannabinoid receptor (Homo sapiens (Human), UniProt P21554); test: CB-1 receptor radioligand binding assay, [3H]CP 55940, transfected CHO cell membranes; settings: 0.5 nM [3H]CP 55940, CHO cell membranes, 120 min at 37° C.
Sequence of human CB-1 cannabinoid receptor (P21554 whole entry): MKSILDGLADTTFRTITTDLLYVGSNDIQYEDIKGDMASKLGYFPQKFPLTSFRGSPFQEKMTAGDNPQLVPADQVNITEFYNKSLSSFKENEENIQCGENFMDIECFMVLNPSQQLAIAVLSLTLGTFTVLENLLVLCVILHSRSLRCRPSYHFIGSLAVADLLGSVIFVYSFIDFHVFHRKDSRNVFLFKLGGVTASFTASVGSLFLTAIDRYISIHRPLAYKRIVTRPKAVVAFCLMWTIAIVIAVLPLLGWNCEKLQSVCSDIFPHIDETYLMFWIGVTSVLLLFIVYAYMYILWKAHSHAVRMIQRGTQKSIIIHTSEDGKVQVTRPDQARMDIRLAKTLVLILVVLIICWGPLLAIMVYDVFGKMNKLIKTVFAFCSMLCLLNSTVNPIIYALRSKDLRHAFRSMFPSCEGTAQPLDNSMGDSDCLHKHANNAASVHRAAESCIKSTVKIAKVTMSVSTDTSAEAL
Description: Nonspecific binding is determined in the presence of 10 µM WIN 55212-2.
Following incubation, the samples are filtered rapidly under vacuum through glass fiber filters (GF/B, Packard) presoaked with 0.3% PEI and rinsed several times with an ice-cold buffer containing 50 mM Tris-HCl (pH 7.4) and 0.5% BSA using a 96-sample cell harvester (Unifilter, Packard). The filters are dried then counted for radioactivity in a scintillation counter (Topcount, Packard) using a scintillation cocktail (Microscint 0, Packard).
The standard reference compound is CP 55940 which is tested in each experiment at several concentrations to obtain a competition curve from which its IC50 is calculated.

human CB1 receptor = human CB1 receptor (Homo sapiens (Human), UniProt P21554); test: CB1 receptor antagonism, agonist-induced cAMP modulation (HTRF) in transfected CHO cells; format: cell-based; settings: read-out: Antag IC50
Sequence of human CB1 receptor (P21554 whole entry): as above
Description: Receptor antagonism: Evaluation of the antagonist activity of compounds at the human CB1 receptor expressed in transfected CHO cells, determined by measuring their effects on agonist-induced cAMP modulation using the HTRF detection method.
Thereafter, the reference agonist CP 55940 and the adenylyl cyclase activator NKH 477 are added at respective final concentrations of 3 nM and 3 µM.
For basal control measurements, CP 55940 is omitted from the wells containing 3 µM AM 281.
Following 20 min incubation at 37° C., the cells are lysed and the fluorescence acceptor (D2-labeled cAMP) and fluorescence donor (anti-cAMP antibody labeled with europium cryptate) are added.
After 60 min at room temperature, the fluorescence transfer is measured at λex=337 nm and λem=620 and 665 nm using a microplate reader (Rubystar, BMG). The cAMP concentration is determined by dividing the signal measured at 665 nm by that measured at 620 nm (ratio).
The standard reference antagonist is AM 281, which is tested in each experiment at several concentrations to generate a concentration-response curve from which its IC50 value is calculated.

Sequence of human adenosine A1 receptor (P30542 whole entry): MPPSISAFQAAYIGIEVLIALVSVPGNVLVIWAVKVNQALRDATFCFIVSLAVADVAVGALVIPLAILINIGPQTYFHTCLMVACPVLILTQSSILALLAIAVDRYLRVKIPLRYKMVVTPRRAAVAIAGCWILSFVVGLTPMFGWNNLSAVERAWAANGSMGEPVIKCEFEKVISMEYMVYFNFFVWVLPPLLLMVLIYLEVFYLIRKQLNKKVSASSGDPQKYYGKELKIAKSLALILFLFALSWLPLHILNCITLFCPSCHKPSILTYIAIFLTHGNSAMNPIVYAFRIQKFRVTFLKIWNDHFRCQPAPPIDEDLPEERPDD

Compound | A1 pKi [1] | A2A pKi [2] | Ki [3] | IC50 (human CB1 receptor) | Ki ([1]; read-out: A1 pKi (converted)) | Ki ([2]; read-out: A2A pKi (converted))
Cc1cc(-c2c(-c3ccccc3)nc(N)n3c(=O)n(Cc4cc(C)on4)nc23)cc(C)n1 [Example 1-14, 5-amino-8-(2,6-dimethyl-4-pyridyl)-2-[(5-methylisoxazol-3-yl)methyl]-7-phenyl-[1,2,4]triazolo[4,3-c]pyrimidin-3-one] | 6.6 | 9.2 | 50.5 µM | 29.2 µM |  | 
Cc1cc(-c2c(-c3ccccc3)nc(N)n3c(=O)n(Cc4ncoc4C)nc23)cc(C)n1 [Example 1-22, 5-amino-8-(2,6-dimethyl-4-pyridyl)-2-[(5-methyloxazol-4-yl)methyl]-7-phenyl-[1,2,4]triazolo[4,3-c]pyrimidin-3-one] | 7.4 | 10.1 | 29.6 µM | > 100 µM |  | 
Cc1cc(-c2c(-c3ccc(F)cc3)nc(N)n3c(=O)n(Cc4ncoc4C)nc23)cc(C)n1 [Example 1-31, 5-amino-8-(2,6-dimethyl-4-pyridyl)-7-(4-fluorophenyl)-2-[(5-methyloxazol-4-yl)methyl]-[1,2,4]triazolo[4,3-c]pyrimidin-3-one] | 7.0 | 9.6 | 26.1 µM | 12.1 µM |  | 
Cc1cc(-c2c(-c3ccccc3)nc(N)n3c(=O)n(Cc4cc(C)on4)nc23)cc(CO)n1 [Example 1-43, 5-amino-8-[2-(hydroxymethyl)-6-methyl-4-pyridyl]-2-[(5-methylisoxazol-3-yl)methyl]-7-phenyl-[1,2,4]triazolo[4,3-c]pyrimidin-3-one] | 6.7 | 9.1 | 86.9 µM | > 100 µM |  | 
Cc1cc(-c2c(-c3ccc(F)cc3)nc(N)n3c(=O)n(Cc4nccn4C)nc23)cc(CO)n1 [Example 1-50, 5-amino-7-(4-fluorophenyl)-8-[2-(hydroxymethyl)-6-methyl-4-pyridyl]-2-[(1-methylimidazol-2-yl)methyl]-[1,2,4]triazolo[4,3-c]pyrimidin-3-one] | 6.5 | 9.5 | 86.1 µM | > 100 µM |  | 
Cc1cc(-c2c(-c3ccc(F)cc3)nc(N)n3c(=O)n(Cc4ncoc4C)nc23)cc(CO)n1 [Example 1-51, 5-amino-7-(4-fluorophenyl)-8-[2-(hydroxymethyl)-6-methyl-4-pyridyl]-2-[(5-methyloxazol-4-yl)methyl]-[1,2,4]triazolo[4,3-c]pyrimidin-3-one] | 6.4 | 9.4 | 80.3 µM | > 100 µM |  | 
COc1cc(-c2c(-c3ccccc3)nc(N)n3c(=O)n(Cc4ncoc4C)nc23)cc(CO)n1 [Example 1-60, 5-amino-8-[2-(hydroxymethyl)-6-methoxy-4-pyridyl]-2-[(5-methyloxazol-4-yl)methyl]-7-phenyl-[1,2,4]triazolo[4,3-c]pyrimidin-3-one] | 6.8 | 9.9 | 66.7 µM | > 100 µM |  | 
COc1cc(-c2c(-c3ccc(F)cc3)nc(N)n3c(=O)n(Cc4ncoc4C)nc23)cc(CO)n1 [Example 1-64, 5-amino-7-(4-fluorophenyl)-8-[2-(hydroxymethyl)-6-methoxy-4-pyridyl]-2-[(5-methyloxazol-4-yl)methyl]-[1,2,4]triazolo[4,3-c]pyrimidin-3-one] | 6.5 | 9.6 | 40.8 µM | > 100 µM |  | 
Cc1ocnc1Cn1nc2c(-c3cc(CO)nc(C(F)(F)F)c3)c(-c3ccccc3)nc(N)n2c1=O [Example 1-66, 5-amino-8-[2-(hydroxymethyl)-6-(trifluoromethyl)-4-pyridyl]-2-[(5-methyloxazol-4-yl)methyl]-7-phenyl-[1,2,4]triazolo[4,3-c]pyrimidin-3-one] | 7.5 | 9.7 |  | > 100 µM |  | 
Cn1ccnc1Cn1nc2c(-c3cc(CO)nc(C(F)(F)F)c3)c(-c3ccccc3)nc(N)n2c1=O [Example 1-67, 5-amino-8-[2-(hydroxymethyl)-6-(trifluoromethyl)-4-pyridyl]-2-[(1-methylimidazol-2-yl)methyl]-7-phenyl-[1,2,4]triazolo[4,3-c]pyrimidin-3-one] | 8.0 | 10.0 |  | > 100 µM |  | 
Cc1cc(-c2c(-c3ccccc3)nc(N)n3c(=O)n(C[C@H]4CC(F)(F)CN4C)nc23)cc(C)n1 [Example 2-14, 5-amino-2-[[(2R)-4,4-difluoro-1-methyl-pyrrolidin-2-yl]methyl]-8-(2,6-dimethyl-4-pyridyl)-7-phenyl-[1,2,4]triazolo[4,3-c]pyrimidin-3-one] |  |  | 36.4 µM | 35.8 µM | 0.1 µM | 0.00316 µM
Cc1cc(-c2c(-c3ccccc3)nc(N)n3c(=O)n(C(CN)C4CCOC4)nc23)cc(C)n1 (centres unmarked) [Example 2-15, 5-amino-2-(2-amino-1-tetrahydrofuran-3-yl-ethyl)-8-(2,6-dimethyl-4-pyridyl)-7-phenyl-[1,2,4]triazolo[4,3-c]pyrimidin-3-one] | 5.7 | 7.5 |  | > 100 µM |  | 
Cc1cc(-c2c(-c3ccccc3)nc(N)n3c(=O)n(C[C@@H]4CCCO4)nc23)cc(CO)n1 [Example 2-28, 5-amino-8-[2-(hydroxymethyl)-6-methyl-4-pyridyl]-7-phenyl-2-[[(2S)-tetrahydrofuran-2-yl]methyl]-[1,2,4]triazolo[4,3-c]pyrimidin-3-one] | 6.5 | 9.1 |  | > 100 µM |  | 
Cc1cc(-c2c(-c3ccccc3)nc(N)n3c(=O)n(C[C@H]4CCCO4)nc23)cc(CO)n1 [Example 2-29, 5-amino-8-[2-(hydroxymethyl)-6-methyl-4-pyridyl]-7-phenyl-2-[[(2R)-tetrahydrofuran-2-yl]methyl]-[1,2,4]triazolo[4,3-c]pyrimidin-3-one] | 6.4 | 9.3 |  | > 100 µM |  | 
Nc1nc(-c2ccccc2)c(-c2cc(Cl)nc(CO)c2)c2nn(C[C@H]3CCCO3)c(=O)n12 [Example 2-32, 5-amino-8-[2-chloro-6-(hydroxymethyl)-4-pyridyl]-7-phenyl-2-[[(2R)-tetrahydrofuran-2-yl]methyl]-[1,2,4]triazolo[4,3-c]pyrimidin-3-one] | 6.6 | 9.6 |  | > 100 µM |  | 
COc1cc(-c2c(-c3ccccc3)nc(N)n3c(=O)n(C[C@H]4CCCO4)nc23)cc(CO)n1 [Example 2-35, 5-amino-8-[2-(hydroxymethyl)-6-methoxy-4-pyridyl]-7-phenyl-2-[[(2R)-tetrahydrofuran-2-yl]methyl]-[1,2,4]triazolo[4,3-c]pyrimidin-3-one] | 5.9 | 9.2 |  | > 100 µM |  | 
Nc1nc(-c2ccccc2)c(-c2cc(CO)nc(C(F)(F)F)c2)c2nn(C[C@H]3CCCO3)c(=O)n12 [Example 2-38, 5-amino-8-[2-(hydroxymethyl)-6-(trifluoromethyl)-4-pyridyl]-7-phenyl-2-[[(2R)-tetrahydrofuran-2-yl]methyl]-[1,2,4]triazolo[4,3-c]pyrimidin-3-one] | 6.3 | 8.9 |  | > 100 µM |  | 
Cc1cc(-c2c(-c3ccccc3)nc(N)n3c(=O)n(CCN4CCCC4c4cccs4)nc23)cc(C)n1 (centres unmarked) [Example 3-1, 5-amino-8-(2,6-dimethyl-4-pyridyl)-7-phenyl-2-[2-[2-(2-thienyl)pyrrolidin-1-yl]ethyl]-[1,2,4]triazolo[4,3-c]pyrimidin-3-one] | 7.6 | 8.9 | 29.2 µM | 10.1 µM |  | 
Cc1cc(-c2c(-c3ccccc3)nc(N)n3c(=O)n(CC4CCCN4Cc4ccccc4CN)nc23)cc(C)n1 (centres unmarked) [Example 3-4, 5-amino-2-[[1-[[2-(aminomethyl)phenyl]methyl]pyrrolidin-2-yl]methyl]-8-(2,6-dimethyl-4-pyridyl)-7-phenyl-[1,2,4]triazolo[4,3-c]pyrimidin-3-one] | 6.3 | 8.4 | 76.4 µM | > 100 µM |  | 
